Here are results for four compounds from patent US9187468B2, “Topical ocular analgesic agents” (Novartis AG, priority 2013, dated 2015).

Data set [1] concerns formalin-induced blinking in rats. The data set is described as follows: Formalin blink test (topical ocular analgesia). Type of data set: in vivo. The note with it: rat. The procedure:
Formalin was prepared at 0.1% final in 0.9% saline from a stock of 10% neutral buffered formalin (Sigma-Aldrich, St. Louis, Mo.). […] The structure of Compound A is.
All compounds were formulated in a 10% hydroxypropyl-β-cyclodextrin (HPβCD) 1×PBS vehicle. Compounds were prepared as 1% stock solutions in absolute ethanol. An appropriate amount of the stock solution was transferred to a glass vial from which the solvent was evaporated, then the compound was re-suspended in appropriate volumes of vehicle and ball-milled overnight at 4° C. All compounds were tested at 0.01%, 0.1%, 0.3%, and 1% w/v, unless otherwise noted. Alcaine® (Alcon Laboratories, Fort Worth, Tex.) was used as a reference compound.
Rats were dosed with 5 μL, of formalin vehicle (0.9% sterile saline) in OS eye. After a 5-second acclimation period, blinks were counted for one minute. Test compound or vehicle was dosed (5 μL) on OD eye. At 5 minutes after test compound treatment (unless otherwise noted), 0.1% formalin was dosed in the OD eye. Blinks were counted in the same manner as the OS eye.
The efficacy data for these compounds are plotted in FIGS. 1, 3, 4, and 5, with % inhibition of formalin-induced blink rate indicated above the bar for each tested concentration.

The test system of data set [2] is nylon fiber ocular surface touching-induced blinking in rats. The experiment in a line: Cochet-Bonnet esthesiometry test (anesthetic activity). Type of data set: in vivo. The conditions noted are these: rat, topical ocular; for anesthesia in Cochet-Bonnet esthesiometry test: concentration range that afforded efficacious analgesia in the formalin blink test. The procedure: Cochet-Bonnet Esthesiometry Test
For the Cochet-Bonnet esthesiometry test that measures anesthetic activity, whiskers were trimmed from test animals or vehicle animals. OD eye of animal was dosed with 5 μL of test compound or vehicle. The animal was restrained in a clear plastic cone (DecapiCone®, Alcon Laboratories, Fort Worth, Tex.) which was trimmed as necessary to allow access to the OD eye. Five minutes after application of test compound, a Cochet-Bonnet esthesiometer, with a nylon monofilament diameter of 0.12 mm and length of 40 mm (0.8 g/mm^2), was applied perpendicularly to the central cornea of the OD eye 10 times. This test was performed three times on each animal within 2 minutes. Data were expressed as the mean number of blinks elicited from 10 stimuli.

The subject of data set [3] is rat spinal ligation model of neuropathic pain. The note with it: orally dosed at 10 mg/kg, comparators at 3-10 times higher doses; cited from earlier work.

`CC(=O)Nc1cccc(Nc2ncnc(N3CCC(OCc4ccc(OC(F)(F)F)cc4)CC3)n2)c1C` [Compound 1]: in data set [1] (FIG. 1 vs FIGS. 3 and 4), the “maximum efficacy as topical ocular analgesic compared to Compounds A and B” value is on record as “more efficacious”; the “potency as topical ocular analgesic compared to Compounds A and B” value is “significantly more potent”. In addition, the “% reduction of formalin-induced blink rate vs vehicle” value in data set [1] (drug concentrations ≧0.05% w/v (tested 0.01%-0.3% w/v)) was greater than 50%. For the same compound, the “anesthesia in Cochet-Bonnet esthesiometry test” value in data set [2] is on record as “did not elicit observable anesthesia”. Besides, the “anesthetic effect (touch-induced blinking) compared to vehicle” value in data set [2] (drug concentrations up to 0.3% w/v (0.05-0.3%)) is on record as “did not elicit a statistically significant anesthetic effect”.
Regarding `CCCCCN1C(=O)C2(COc3cc4c(cc32)OCO4)c2ccccc21` (stereo not drawn) [Compound A, 1′-pentyl-6H-spiro[[1,3]dioxolo[4,5-f]benzofuran-7,3′-indolin]-2′-one], the “% reduction of formalin-induced blink rate” value in data set [1] (0.1% w/v dose) came out at 27%.
Regarding `NC(=O)c1nc(-c2cccc(-c3ccccc3OC(F)(F)F)c2)cs1` [Compound B, 4-(2′-(trifluoromethoxy)-[1,1′-biphenyl]-3-yl)thiazole-2-carboxamide], the “% reduction of formalin-induced blink rate” value is on record as “no effect” in data set [1] (0.01% w/v dose), “no effect” in data set [1] (0.1% w/v dose), roughly 40% in data set [1] (0.3% w/v dose) and roughly 40% in data set [1] (1% w/v dose). Besides, the “therapeutic efficacy vs mexiletene, lamotrigene and carbamazepine” value in data set [3] is given as “significantly more therapeutically efficacious”.
With `Fc1cccc(Cn2ccc3c(OC4CCN(Cc5cscn5)CC4)ncnc32)c1F` [Compound C], the “dose dependence of analgesic efficacy” value in data set [1] (0.01-0.2% w/v) is on record as “dose-related increase in efficacy”. Further, in data set [1] (top tested dose of 0.01-0.2% w/v range), the “maximum efficacy (% inhibition of formalin-induced blink rate)” value was found to be 61%. Also, the “anesthetic effect (touch-induced blinking)” value in data set [2] (0.1% and 0.2% doses) is “elicited significant anesthesia”. In data set [2], the “anesthesia in Cochet-Bonnet esthesiometry test” value is given as “profound anesthesia”.
